Row | melting point | SMILES
1 | 156 to 159 °C (dec.) | CC(=O)NCCNc1nc(-c2ccccc2)nc2[nH]c(C(=O)N3CCCC(c4ccccc4)(c4ccccc4)C3)cc12 [26.26, N-{2-[6-(3,3-Diphenylpiperidine-1-carbonyl)-2-phenyl-7H-pyrrolo[2,3-d]pyrimidin-4-ylamino]-ethyl}-acetamide]
2 | 135 to 138 °C | COC1(c2ccccc2)CCN(C(=O)c2cc3c(NCCNC(C)=O)nc(-c4ccccc4)nc3[nH]2)CC1 [26.27, N-{2-[6-(4-Methoxy-4-phenylpiperidine-1-carbonyl)-2-phenyl-7H-pyrrolo[2,3-d]pyrimidin-4-ylamino]-ethyl}-acetamide]
3 | 283 to 284 °C (dec.) | CC(=O)NCCNc1nc(-c2ccccc2)nc2[nH]c(C(=O)N3CCC(Cc4ccc(F)cc4)CC3)cc12 [26.28, N-(2-{6-[4-(4-Fluorobenzyl)-piperidine-1-carbonyl]-2-phenyl-7H-pyrrolo[2,3-d]pyrimidin-4-ylamino}-ethyl)-acetamide]
4 | 135 to 145 °C (dec.) | CC(=O)NCCNc1nc(-c2ccccc2)nc2[nH]c(C(=O)N3CCC(C(O)c4ccc(F)cc4)CC3)cc12 (stereo not shown) [26.29]
5 | 98 to 100 °C | CC(=O)NCCNc1nc(-c2ccccc2)nc2[nH]c(C(=O)N3C[C@@H](C)N(CCCc4ccccc4)C[C@@H]3C)cc12 [26.30]
6 | 196 to 198 °C | CC(=O)NCCNc1nc(-c2ccccc2)nc2[nH]c(C(=O)N3C[C@@H](C)N(Cc4ccccc4)[C@@H](C)C3)cc12 [26.32]
7 | 110 to 115 °C (dec.) | CC(=O)NCCNc1nc(-c2ccccc2)nc2[nH]c(C(=O)N3C[C@@H](C)N(CCc4ccccc4)[C@@H](C)C3)cc12 [26.33, N-{2-[6-(cis-3,5-Dimethyl-4-phenethylpiperazine-1-carbonyl)-2-phenyl-7H-pyrrolo[2,3-d]pyrimidin-4-ylamino]-ethyl}-acetamide]
8 | 223 to 226 °C (dec.) | CC(=O)NCCNc1nc(-c2ccccc2)nc2[nH]c(C(=O)N3CCN(c4ccccn4)CC3)cc12 [26.35, N-{2-[2-Phenyl-6-(4-pyridin-2-yl-piperazine-1-carbonyl)-7H-pyrrolo[2,3-d]pyrimidin-4-ylamino]-ethyl}-acetamide]
9 | 140 to 145 °C | CC(=O)NCCNc1nc(-c2ccccc2)nc2[nH]c(C(=O)N3CCCC(C)(c4ccccc4)C3)cc12 (stereo not shown) [26.36, N-{2-[6-(3-Methyl-3-phenylpiperidine-1-carbonyl)-2-phenyl-7H-pyrrolo[2,3-d]pyrimidin-4-ylamino]-ethyl}-acetamide]
10 | 225 to 228 °C | CC(=O)NCCNc1nc(-c2ccccc2)nc2[nH]c(C(=O)N3CCN(c4ncccc4C(F)(F)F)CC3)cc12 [26.37, N-(2-{2-Phenyl-6-[4-(3-trifluoromethylpyridin-2-yl)-piperazine-1-carbonyl]-7H-pyrrolo[2,3-d]pyrimidin-4-ylamino}-ethyl)-acetamide]
11 | 234 °C | CC(=O)NCCNc1nc(-c2ccccc2)nc2[nH]c(C(=O)N3CCN(c4ccc(F)cc4)CC3)cc12 [26.38, N-(2-{6-[4-(4-Fluorophenyl)-piperazine-1-carbonyl]-2-phenyl-7H-pyrrolo[2,3-d]pyrimidin-4-ylamino}-ethyl)-acetamide]
12 | 270 to 273 °C | CC(=O)NCCNc1nc(-c2ccccc2)nc2[nH]c(C(=O)N3CCN(c4ccc(C(F)(F)F)cn4)CC3)cc12 [26.39, N-(2-{2-Phenyl-6-[4-(5-trifluoromethylpyridin-2-yl)-piperazine-1-carbonyl]-7H-pyrrolo[2,3-d]pyrimidin-4-ylamino}-ethyl)-acetamide]
13 | 134 to 137 °C | COC1(c2ccc(F)cc2)CCN(C(=O)c2cc3c(NCCNC(C)=O)nc(-c4ccccc4)nc3[nH]2)CC1 [26.48, N-(2-{6-[4-(4-Fluorophenyl)4-methoxypiperidine-1-carbonyl]-2-phenyl-7H-pyrrolo[2,3-d]pyrimidin-4-ylamino}-ethyl)-acetamide]
14 | 140 °C (dec.) | CC(=O)NCCNc1nc(-c2ccccc2)nc2[nH]c(C(=O)N3CCC4(CC3)CCN(Cc3ccccc3)C4=O)cc12 [26.49, N-{2-[6-(2-Benzyl-1-oxo-2,8-diazaspiro[4.5]decane-8-carbonyl)-2-pheny1-7H-pyrrolo[2,3-d]pyrimidin-4-ylamino]-ethyl}-acetamide]
15 | 180 to 185 °C (dec.) | COC1(c2ccccc2Cl)CCN(C(=O)c2cc3c(NCCNC(=O)c4cc5c(NCCNC(C)=O)nc(-c6ccccc6)nc5[nH]4)nc(-c4ccccc4)nc3[nH]2)CC1 [26.51, 4-(2-Acetylaminoethylamino)-2-phenyl-7H-pyrrolo[2,3-d]pyrimidine-6-carboxylic acid (2-{6-[4-(2-chlorophenyl)-4-methoxypiperidine-1-carbonyl]-2-phenyl-7H-pyrrolo[2,3-d]pyrimidin-4-ylamino}-ethyl)-amide]
16 | 260 to 261 °C | CC(=O)NCCNc1nc(-c2ccccc2)nc2[nH]c(C(=O)N3CCC(Cc4ccccc4)CC3)cc12 [26.54, N-{2-[6-(4-Benzylpiperidine-1-carbonyl)-2-phenyl-7H-pyrrolo[2,3-d]pyrimidin-4-ylamino]-ethyl}-acetamide]

From US20030229067A1, “Pyrrolopyrimidine A2b selective antagonist compounds, their synthesis and use” (priority 2001, published 2003)
